Each compound was assayed on R. oryzae UCP1295 (assay: Screening of the Pandemic Response Box library at 5 µM). Conditions: 48 h, Table S1, mean of the four values.
Assay type: cell-based, Rhizopus oryzae
Method: Rhizopus oryzae UCP is the most prevalent Mucorales species in human infections and was used as a reference strain to screen the Pandemic Response Box® library. Screening was performed according to Rollin-Pinheiro and colleagues. Each compound was diluted in RPMI 1640 medium (Sigma Chemical Co., St. Louis, MO, USA), supplemented with 2% glucose and buffered with 3-(N-morpholino) propanesulfonic acid (MOPS) (Sigma Chemical Co., St. Louis, MO, USA) (0.165 mol/L, pH 7.2, from here on referred to as ‘supplemented RPMI’) to reach 5 μM in 96-well microtiter plates. Posaconazole (5 μM) and supplemented RPMI containing 1% DMSO were used as controls (both from Sigma Chemical Co., St. Louis, MO, USA). Conidia (2 × 10^5/mL) were added and incubated for 48 h at 37 °C in a 5% CO2 atmosphere. […] An inhibition of at least 60% was defined as the cut-off to select the promising drugs with antifungal activity against the Rhizopus species.

| Structure (SMILES) | % of growth inhibition, Mean [%] |
| --- | --- |
| O=C(/C=C/n1cnc(-c2cc(C(F)(F)F)cc(C(F)(F)F)c2)n1)NNc1cnccn1 [MMV1593517] | -8.5 |
| Cc1cc(CCCOc2c(C)cc(-c3noc(C(F)(F)F)n3)cc2C)on1 [MMV690467] | -3.4 |
| Cl.NC1(C(=O)O)CCP(=O)(O)CC1 (stereo not shown) [MMV1593538] | 0.4 |
| Oc1ccc2[nH]c(-c3ccccc3)nc2c1 [MMV292173] | -15.4 |
| COc1ccc(NS(=O)(=O)c2ccc(Cl)s2)cn1 [MMV1580499] | -3.0 |
| O=C(O)c1ccccc1Sc1ncnc2sc3c(c12)CCC3 [MMV1579878] | -41.9 |
| CCc1ccc(C2CC(C(F)(F)F)n3ncc(C(=O)NCc4ccc(OC)cc4)c3N2)cc1 (stereo not shown) [MMV831201] | -4.6 |
| NCC(=O)Nc1ccc(-n2nc(C(F)(F)F)cc2-c2ccc3c(ccc4ccccc43)c2)cc1 [MMV1578560] | -14.6 |
| O=C(Nc1ccc(Cl)c(C(F)(F)F)c1)C(CCCl)C(=O)Nc1ccc(Cl)c(C(F)(F)F)c1 [MMV1580840] | -7.5 |
| C[C@@H](O)[C@H](N)C(=O)NS(=O)(=O)c1cccc(-c2ccc3[nH]ncc3c2)c1.Cl.Cl [MMV1582494] | -14.6 |
| COc1cc(NS(=O)(=O)c2ccc(C)cc2)c2ncccc2c1 [MMV098836] | 48.1 |
| O=C(NN1C(=O)[C@@H]2C3C=CC([C@H]4C[C@@H]34)[C@@H]2C1=O)c1ccc(C(F)(F)F)cc1 [MMV1782114] | -5.7 |
| COc1ccc2nc(-c3ccccc3)cc(O)c2c1 [MMV011565] | -42.1 |
| CCOC(=O)/C=C/[C@H](C[C@@H]1CCNC1=O)NC(=O)[C@H](CC)n1cccc(NC(=O)c2cc(C)on2)c1=O [MMV1782112] | -11.8 |
| CC(=O)NC[C@H]1CN(c2ccc(N3CCSCC3)c(F)c2)C(=O)O1 [MMV688756] | -8.2 |
| COc1ccccc1CN[C@H]1C2CCN(CC2)[C@H]1C(c1ccccc1)c1ccccc1 [MMV690480] | -1.8 |
| CCOc1ccc(/C=N/NC(=O)C2CC2c2ccc(C(C)(C)C)cc2)cc1OCC (stereo not shown) [MMV1634398] | 4.7 |
| c1cc(CN2CCCNCCNCCCNCC2)ccc1CN1CCCNCCNCCCNCC1 [MMV1580502] | 52.2 |
| COc1ccc2sc3c(c2c1)NC(C)CNC3=O (stereo not shown) [MMV1782115] | -2.6 |
| CCN(CC)S(=O)(=O)c1ccc(Cl)c(C(=O)Nc2sc3c(c2C#N)CCCC3)c1 [MMV1634384] | -5.0 |
| Cc1onc(-c2ccccc2)c1-c1ccc(S(N)(=O)=O)cc1 [MMV002260] | -15.5 |
| COc1cc(Cc2cc(N)nc(N)n2)cc(OC)c1OC [MMV1579846] | -11.6 |
| CSC[C@H]1CN(Cc2c[nH]c3c(N)ncnc23)C[C@@H]1O [MMV1578565] | -14.4 |
| NC(=S)N/N=C/c1ncccc1N [MMV1580496] | -9.1 |
| CNC(=O)C1O[C@@H](n2cnc3c(NCc4cccc(I)c4)nc(Cl)nc32)[C@H](O)[C@@H]1O (stereo partly shown) [MMV1593514] | -5.2 |

| Structure (SMILES) | % of growth inhibition, Mean [%] |
| --- | --- |
| Nc1nc(O)c2ncn(COC(CO)CO)c2n1 [MMV001761] | -10.5 |
| C=C(C)[C@@H]1CC[C@]2(C(=O)O)CC[C@]3(C)[C@H](CC[C@@H]4[C@@]5(C)CC[C@H](O)C(C)(C)[C@@H]5CC[C@]43C)[C@@H]12 [MMV638198] | 43.5 |
| CCOC(=O)/C=C/[C@H](C[C@@H]1CCNC1=O)NC(=O)[C@@H](CC(=O)[C@@H](NC(=O)c1cc(C)on1)C(C)C)Cc1ccc(F)cc1 [MMV1580491] | -18.6 |
| Nc1nc2c(ncn2/C=C2/CC2(CO)CO)c(=O)[nH]1 [MMV1782210] | -16.4 |
| CC(Cc1ccccc1)C(=O)Nc1ccc(Cl)cc1C(=O)O (stereo not shown) [MMV1579781] | -32.3 |
| CCOc1ccc(C(=O)NCCc2ccccc2)cc1 [MMV124656] | -37.8 |
| CCc1cc(CCCOc2c(C)cc(-c3noc(C(F)(F)F)n3)cc2C)on1 [MMV1634556] | 10.0 |
| CC[C@H](NC(=O)[C@H](C)NC)C(=O)N1C[C@@H](O)C[C@H]1Cc1c(-c2[nH]c3cc(F)ccc3c2C[C@@H]2C[C@H](O)CN2C(=O)[C@H](CC)NC(=O)[C@H](C)NC)[nH]c2cc(F)ccc12 [MMV1557856] | 3.0 |
| CC(C)Nc1ncnc2c1cnn2-c1ccc(Cl)cc1 [MMV108465] | -32.3 |
| CCCCCCC1c2ccc(O)cc2Oc2cc(O)ccc21 [MMV1593535] | -3.0 |
| Nc1nc2c(Cc3cccnc3)c[nH]c2c(=O)[nH]1 [MMV1782355] | -12.7 |
| CN(C)[C@@H]1C(=O)C(C(N)=O)=C(O)[C@@]2(O)C(=O)C3=C(O)c4c(O)c(NC(=O)CN5CCCC5)cc(F)c4C[C@H]3C[C@@H]12.Cl.Cl [MMV1578574] | -44.3 |
| NC(=O)c1ccccc1NC(=O)c1ccc(C(=O)Nc2ccccc2C(N)=O)cc1 [MMV508427] | -9.9 |
| Cc1[nH]c2ccccc2c1CC(=O)N[C@@H](Cc1ccccc1)C(=O)N(C)c1ccccc1 [MMV1580798] | -2.6 |
| CCc1nc2ccccn2c1C(=O)NCc1ccccc1 [MMV1663457] | -0.4 |
| NC[C@H]1OB(O)c2c(OCCCO)cccc21 [MMV1578566] | -20.6 |
| CNc1nc(=O)[nH]cc1F [MMV1782388] | -27.5 |
| COc1ccc(C)cc1NC(=O)c1ccc(S(=O)(=O)N2CCCCC2)cc1 [MMV1578579] | -3.3 |
| CC(Oc1ccc(Cl)cc1Cl)C(=O)NCc1ccc2c(c1)OCO2 (stereo not shown) [MMV1578925] | -25.4 |
| Cc1cccc(C)c1C(=O)Nc1nc(-c2ccccn2)cc2ccccc12 [MMV1581558] | 53.3 |
| O=C(Nc1nnc(-c2ccc(Cl)cc2)o1)c1ccc(F)cc1 [MMV1782140] | -4.1 |
| Cl.N=C(N)c1ccc(COc2ccc(Cl)cc2)cc1 [MMV1579844] | -3.3 |
| Nc1nc(O)c(Br)c(-c2cccc(Cl)c2)n1 [MMV1645152] | 4.7 |
| CO/N=C(\C(=O)N[C@@H]1C(=O)N2C(C(=O)OCOC(=O)C(C)(C)C)=C(/C=C\c3scnc3C)CS[C@H]12)c1csc(N)n1 [MMV002560] | -6.4 |
| COc1ccc(NC(=O)CC2Sc3ncnn3C2=O)cc1 (stereo not shown) [MMV1483032] | -13.1 |

| Structure (SMILES) | % of growth inhibition, Mean [%] |
| --- | --- |
| CN(C)CCCOc1ccc(-c2ccc3ncc4c(c3c2)n(C2CCOCC2)c(=O)n4C)cn1 [MMV1580483] | -5.4 |
| Nc1nc(Nc2ccc3nc(-c4ccc(F)cc4)cc(N)c3c2)cc(-c2ccccc2)n1 [MMV1593541] | -21.7 |
| Clc1cc(Cl)c2c(c1)CCc1ccccc1C2n1ccnc1 (stereo not shown) [MMV1634492] | -30.6 |
| O=C1[C@H](CC[C@H](O)c2ccc(F)cc2)[C@@H](c2ccc(O)cc2)N1c1ccc(F)cc1 [MMV1581377] | 3.5 |
| O=C(Nc1nnc(-c2ccc(Cl)cc2)o1)c1nc2ccccc2s1 [MMV102833] | 1.7 |
| CC(C)Oc1ccc(-n2cnc3cc(/C=C\c4ccc(C(C)(C)O)cc4)ccc32)cc1 [MMV1782350] | 26.5 |
| CCCCc1ccc(-c2cc(C(=O)O)cc(-c3ccc(Cl)cc3)n2)cc1 [MMV1580852] | -12.9 |
| CCCCCc1ccc(C(=O)NCCn2cc(CCCCCc3c[nH]c(N)n3)nn2)cc1.Cl [MMV1580847] | -16.8 |
| Cc1ccc(C)c(OCCCCCCN2C[C@H](O)[C@@H](O)[C@H](O)[C@H]2CO)c1 [MMV1634401] | 10.8 |
| O=C(CP(=O)(O)O)NCCc1cccc(Oc2ccccc2)c1 [MMV1579787] | -30.1 |
| Clc1cccc(-c2nnc(-c3ccccc3)o2)c1 [MMV141011] | -16.6 |
| COc1ccc(SC(=O)N[C@H](CCC(=O)O)C(=O)O)cc1 [MMV1580846] | -33.5 |
| C[C@H](Cn1cnc2c(N)ncnc21)OCP(=O)(O)O [MMV1580478] | -19.5 |
| NC(N)=NCCCCC(=O)Nc1cc(C(F)(F)F)cc(NC(=O)c2cc(C(=O)Nc3cc(C(F)(F)F)cc(NC(=O)CCCCN=C(N)N)c3O[C@@H]3CCNC3)ncn2)c1O[C@@H]1CCNC1 [MMV1634402] | -4.8 |
| Cl.Cl.NCCCc1ccccc1C(=O)Nc1ncc([N+](=O)O)s1 [MMV1579786] | -16.7 |
| Cc1cc(-c2ccccc2)c(C(=O)C(=O)Nc2ccc(N3CCN(c4ncc(F)cn4)CC3)cc2)n1C [MMV1782354] | -38.2 |
| CCCCc1ccc(-c2nc(C)c(C(=O)OC)s2)cc1 [MMV1634392] | -3.4 |
| COc1ccc(COc2cc3oc(=O)c4cc(C(C)O)ccc4c3cc2OC)cc1 (stereo not shown) [MMV1580799] | -1.6 |
| CN(C)CCNC(=O)c1cccc2cccnc12 [MMV811071] | -21.7 |
| CC(C)(C)c1cc(CCC(=O)N2CCC2)cc(C(C)(C)C)c1O [MMV1229204] | -11.2 |
| CC[C@@H]1C(=O)OC[C@@H]1Cc1cncn1C.Cl [MMV002516] | -16.1 |
| N#CCN1C(=O)COc2cc(F)c(N3C(=O)c4ccccc4C3=O)cc21 [MMV1579785] | -18.3 |
| CC(C)c1ccc(COc2cccc(-c3cc([S+](C)[O-])c(C#N)c(=O)[nH]3)c2)cc1 (stereo not shown) [MMV1582497] | -17.1 |
